# Patent US20220143026A1, “TRIPLE COMBINATION TO TREAT B-CELL MALIGNANCIES” (TG Therapeutics, Inc., priority 2020, published 2022)
# Where two headings read alike, the source gives them in different places. Marks after values point to notes of the source that are not given here.
# Columns and labels:
# [1] = in vivo; cited from earlier work
# [2] = comparison of atrial fibrillation adverse events between BTK inhibitors; format: in vivo, human; details: N=106
# [3] = Phase 1/1b clinical trial, pharmacokinetics; format: in vivo, human; details: patients
# BTK [4] = target: T1, BTK (Homo sapiens, UniProt Q06187); details: read-out: kinase inhibition IC50 against BTK; cited from earlier work
# T1 sequence (Q06187 whole entry): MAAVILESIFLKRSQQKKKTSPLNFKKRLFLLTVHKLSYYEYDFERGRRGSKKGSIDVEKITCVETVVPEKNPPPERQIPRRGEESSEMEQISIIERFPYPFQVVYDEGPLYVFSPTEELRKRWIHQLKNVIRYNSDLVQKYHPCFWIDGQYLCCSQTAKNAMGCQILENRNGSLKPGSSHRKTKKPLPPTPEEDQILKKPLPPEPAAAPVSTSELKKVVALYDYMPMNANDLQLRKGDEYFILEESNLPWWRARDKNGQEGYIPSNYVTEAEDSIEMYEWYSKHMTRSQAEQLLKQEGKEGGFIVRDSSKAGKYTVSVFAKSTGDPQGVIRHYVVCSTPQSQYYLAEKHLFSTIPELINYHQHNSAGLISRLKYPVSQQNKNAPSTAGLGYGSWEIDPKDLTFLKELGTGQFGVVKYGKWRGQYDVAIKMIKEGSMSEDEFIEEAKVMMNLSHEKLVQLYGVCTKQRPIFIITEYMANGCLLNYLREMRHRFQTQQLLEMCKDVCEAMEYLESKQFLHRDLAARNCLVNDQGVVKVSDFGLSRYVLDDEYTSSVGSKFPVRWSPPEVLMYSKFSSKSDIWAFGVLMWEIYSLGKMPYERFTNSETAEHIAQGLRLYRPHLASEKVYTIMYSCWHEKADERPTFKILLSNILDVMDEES
# [5] = human, in vivo
# EGFR = EGFR (Homo sapiens, UniProt P00533); details: cited from earlier work
# EGFR, sequence (P00533 25-1210, species assumed): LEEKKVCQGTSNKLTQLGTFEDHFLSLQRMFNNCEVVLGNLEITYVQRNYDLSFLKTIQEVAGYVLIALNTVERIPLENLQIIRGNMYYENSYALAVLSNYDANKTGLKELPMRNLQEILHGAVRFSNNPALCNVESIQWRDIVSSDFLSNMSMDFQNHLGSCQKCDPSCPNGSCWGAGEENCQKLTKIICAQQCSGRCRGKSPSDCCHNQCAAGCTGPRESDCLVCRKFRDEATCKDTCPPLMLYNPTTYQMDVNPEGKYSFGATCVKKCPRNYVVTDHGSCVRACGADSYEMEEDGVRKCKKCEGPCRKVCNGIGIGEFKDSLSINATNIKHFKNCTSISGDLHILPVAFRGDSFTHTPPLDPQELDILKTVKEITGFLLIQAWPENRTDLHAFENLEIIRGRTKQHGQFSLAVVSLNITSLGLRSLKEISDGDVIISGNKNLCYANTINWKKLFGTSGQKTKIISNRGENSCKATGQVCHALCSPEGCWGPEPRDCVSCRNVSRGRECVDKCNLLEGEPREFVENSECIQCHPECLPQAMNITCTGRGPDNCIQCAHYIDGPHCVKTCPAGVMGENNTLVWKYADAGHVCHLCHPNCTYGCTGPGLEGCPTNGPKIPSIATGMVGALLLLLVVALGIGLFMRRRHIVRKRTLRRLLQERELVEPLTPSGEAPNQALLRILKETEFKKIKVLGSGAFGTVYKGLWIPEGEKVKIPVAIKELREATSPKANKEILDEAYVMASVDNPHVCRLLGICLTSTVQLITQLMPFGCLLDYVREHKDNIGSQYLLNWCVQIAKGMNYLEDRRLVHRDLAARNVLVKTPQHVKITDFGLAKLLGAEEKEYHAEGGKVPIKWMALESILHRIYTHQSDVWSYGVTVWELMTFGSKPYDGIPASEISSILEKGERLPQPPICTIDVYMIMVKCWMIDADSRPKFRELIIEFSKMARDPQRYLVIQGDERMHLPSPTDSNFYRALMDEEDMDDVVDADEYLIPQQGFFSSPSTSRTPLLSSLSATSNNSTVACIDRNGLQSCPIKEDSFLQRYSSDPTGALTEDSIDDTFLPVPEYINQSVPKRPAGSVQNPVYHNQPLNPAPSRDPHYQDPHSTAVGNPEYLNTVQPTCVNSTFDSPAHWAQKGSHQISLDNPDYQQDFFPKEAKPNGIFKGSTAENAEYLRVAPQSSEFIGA
# [6] = tested on: follicular lymphoma (FL) DOHH-2 cell line; details: read-out: IC50, inhibition of growth; cited from earlier work
# [7] = tested on: mantle cell lymphoma (MCL) Mino cell line; details: read-out: IC50, inhibition of growth; cited from earlier work
# DLBCL SU-DHL-6 cell line = details: read-out: IC50, inhibition of growth; cited from earlier work
# [8] = tested on: IgM-activated BCR pathway; details: DOHH-2 cells; cited from earlier work
# JEKO cells = details: cited from earlier work
# BTK [9] = target: T2, BTK (Mus musculus, UniProt P35991); details: mice, single dose of TG-1701 at 12.5 mg/kg; cited from earlier work
# T2 construct: from tissue; host or cells: mouse spleen
# T2 sequence (P35991 whole entry): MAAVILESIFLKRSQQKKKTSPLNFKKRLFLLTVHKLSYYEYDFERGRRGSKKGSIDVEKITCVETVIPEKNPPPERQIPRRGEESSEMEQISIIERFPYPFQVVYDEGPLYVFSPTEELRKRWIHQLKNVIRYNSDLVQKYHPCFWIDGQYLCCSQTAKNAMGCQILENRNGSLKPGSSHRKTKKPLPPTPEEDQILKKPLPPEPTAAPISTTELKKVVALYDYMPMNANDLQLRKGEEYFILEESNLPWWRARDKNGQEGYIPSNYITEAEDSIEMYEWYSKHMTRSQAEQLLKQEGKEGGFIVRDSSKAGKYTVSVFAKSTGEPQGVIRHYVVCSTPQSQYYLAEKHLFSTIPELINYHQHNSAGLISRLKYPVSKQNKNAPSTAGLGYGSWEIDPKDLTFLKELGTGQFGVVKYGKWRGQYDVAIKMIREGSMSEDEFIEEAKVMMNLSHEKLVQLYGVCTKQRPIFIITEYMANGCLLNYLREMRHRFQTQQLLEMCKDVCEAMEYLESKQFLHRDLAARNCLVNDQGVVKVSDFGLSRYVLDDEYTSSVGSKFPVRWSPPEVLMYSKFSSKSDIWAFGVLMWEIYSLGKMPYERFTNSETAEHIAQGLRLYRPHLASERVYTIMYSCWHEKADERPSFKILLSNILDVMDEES
# [10] = tested on: SU-DHL-6 (GCB-DLBCL), Mino (MCL), and OCI-Ly10 (ABC-DLBCL) xenograft models; details: SU-DHL-6, Mino, OCI-Ly10 xenografts; cited from earlier work
# B-NHL cell lines [11] = details: cited from earlier work
# B-NHL cell lines [12] = details: cited from earlier work; remark: listed apart in the source
# BTK [13] = target: T1, BTK; test: Phase 1/1b clinical trial, pharmacodynamics (BTK occupancy); format: in vivo; parameters: endogenous in cells
# [14] = Phase 1/1b clinical trial, safety; details: for treatment discontinuation: Death: CLL, N = 20, death due to SARS-CoV-2 infection
# B-cell malignancies = test: Phase 1/1b clinical trial, efficacy (response)
# Procedure: All patients were treated until disease progression, unacceptable toxicity, or investigator/patient decision to withdraw.
# All patients were treated until disease progression, unacceptable toxicity, or investigator/patient decision to withdraw study consent.
# Evaluable patients had at least one response assessment.
# [15] = ibrutinib n=263, acalabrutinib n=266; cited from earlier work
# [16] = tested on: relapsed and refractory hematologic malignancies; details: cited from earlier work
# CD20 antigen = target: T3, CD20 antigen (Homo sapiens, UniProt P11836); details: cited from earlier work
# T3 sequence (P11836 1-297): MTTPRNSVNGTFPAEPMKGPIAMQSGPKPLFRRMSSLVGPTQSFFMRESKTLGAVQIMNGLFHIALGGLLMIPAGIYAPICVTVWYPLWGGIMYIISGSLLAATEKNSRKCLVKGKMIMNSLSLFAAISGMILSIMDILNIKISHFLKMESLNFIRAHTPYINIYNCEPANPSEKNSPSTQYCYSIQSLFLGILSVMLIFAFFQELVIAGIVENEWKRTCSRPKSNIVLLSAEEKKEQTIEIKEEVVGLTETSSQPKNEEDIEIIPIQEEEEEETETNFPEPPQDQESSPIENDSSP
# [17] = monotherapy 200 mg, CLL cohort, N = 20
# [18] = monotherapy 200 mg, MCL cohort, N = 18
# [19] = monotherapy 200 mg, WM cohort, N = 19
# [20] = monotherapy dose escalation 100-400 mg, N = 23
# [21] = patients with relapsed or refractory hematologic malignancies
molecule,measurement,setting,value
CC[C@H](Nc1ncnc2[nH]cnc12)c1nc2cccc(F)c2c(=O)n1-c1ccccc1 [Idelalisib],"immune mediated colitis, grade 3",[1],≥ 5%
same,"pneumonitis, grade 3",[1],≥ 4%
same,"transaminitis, grade 3",[1],≥ 8%
"CC#CC(=O)N1CC[C@@H](n2cc(-c3ccc(Oc4c(F)cccc4F)cc3)c3c(N)n[nH]c(=O)c32)C1 [TG-1701, (R)-4-amino-1-(1-(but-2-ynoyl)pyrrolidin-3-yl)-3-(4-(2,6-difluorophenoxy)phenyl)-1,6-dihydro-7H-pyrrolo[2,3-d]pyridazin-7-one]",% incidence of any grade Afib,[2],3.8%
same,"% incidence of atrial fibrillation (Afib), Grade 3 or greater",[2],1.9%
same,"kinetics, dose proportionality of exposure",[3],Linear kinetics
same,IC50,BTK [4],3 nM
same,G≥3 neutropenia,[5],8%
same,changes between pre- and on-treatment diastolic blood pressure nor QTc,[5],No significant changes
same,patients with dose reduction due to treatment-related adverse events,[5],Four
same,treatment discontinuations due to adverse events,[5],no treatment discontinuations due to adverse events
same,ventricular tachyarrhythmia,[5],No cases
same,IC50,EGFR,270 nM
same,IC50,[6],369 nM
same,IC50,[7],449 nM
same,IC50,DLBCL SU-DHL-6 cell line,313 nM
same,"IgM-activated BCR pathway: phosphorylation of BTK, PLCy2, and ERK1/2",[8],inhibited
same,CXCL12-dependent migration,JEKO cells,blocked
same,IgM-dependent CD69 expression,JEKO cells,blocked
same,adhesion of JEKO cells to VCAM-1,JEKO cells,blocked
same,BTK occupancy in the spleen,BTK [9],completely occupied
same,anti-tumor efficacy,[10],potent anti-tumor activity equivalent to or greater than ibrutinib
same,"FcγR-driven ADCC and ADCP activity of anti-CD20 antibodies (e.g., ublituximab)",B-NHL cell lines [11],does not impair
same,ADCC activity of ublituximab in the presence of the BTK inhibitor,"B-NHL cell lines [11]; compared to monotherapy ADCC activity of ublituximab, across cell lines",not significantly different
same,ADCP activity of rituximab in the presence of the BTK inhibitor,B-NHL cell lines [12],conserved to a greater extent
same,ADCP activity of ublituximab in combination with the BTK inhibitor,B-NHL cell lines [12]; increasing concentrations,conserved at all dose levels tested
same,BTK occupancy,BTK [13]; 100 mg QD,full BTK occupancy
same,saturation of the BTK,BTK [13]; all dose levels studied,~100%
same,receptor occupancy at 100 mg,"BTK [13]; human, 100 mg QD",≥ 99%
same,treatment discontinuation: Death,[14]; dose-expansion 200 mg,1^‡ N(%)
same,treatment discontinuation: Death,[14]; dose-expansion 300 mg,2^‡ N(%)
same,hematologic variables in patients with anemia and thrombocytopenia at baseline,B-cell malignancies; CLL 200-mg and 300-mg cohorts,sustained improvement
same,lymphocytosis resolution to normal or less than 50% of baseline,B-cell malignancies; CLL monotherapy patients,57.1%
same,ORR,"B-cell malignancies; CLL patients evaluable for response, Example 2",95.6%
same,median duration of response,"B-cell malignancies; CLL patients, Example 2",has not been reached
same,treatment discontinuation: Progression by iwCLL criteria,"B-cell malignancies; CLL, dose-escalation 100-400 mg, N = 6",1 N(%)
same,complete responses (CR) confirmed,B-cell malignancies; TG-1701 monotherapy,No complete responses
same,ORR,B-cell malignancies; [17],95%
same,Stable disease,B-cell malignancies; [17],1 (5) N (%)
same,Partial response,"B-cell malignancies; monotherapy 200 mg, CLL cohort, N = 20, includes PR and PR-L",19 (95)^b N (%)
same,ORR,B-cell malignancies; [18],50%
same,Partial response,B-cell malignancies; [18],9 (50) N (%)
same,Progressive disease,B-cell malignancies; [18],3 (17) N (%)
same,Stable disease,B-cell malignancies; [18],6 (33) N (%)
same,Minor response,B-cell malignancies; [19],6 (32) N (%)
same,ORR,B-cell malignancies; [19],95%
same,Partial response,B-cell malignancies; [19],12 (63) N (%)
same,Progressive disease,B-cell malignancies; [19],1 (5) N (%)
same,Minor response,B-cell malignancies; [20],1 (4) N (%)
same,ORR,B-cell malignancies; [20],52%
same,Partial response,B-cell malignancies; [20],11 (48) N (%)
same,Progressive disease,B-cell malignancies; [20],3 (13) N (%)
same,Stable disease,B-cell malignancies; [20],8 (35) N (%)
CC#CC(=O)N1CCC[C@H]1c1nc(-c2ccc(C(=O)Nc3ccccn3)cc2)c2c(N)nccn12 [acalabrutinib],% incidence of any grade Afib,[15],9%
same,"% incidence of atrial fibrillation (Afib), Grade 3 or greater",[15],4.5%
"CC(C)Oc1ccc(-c2nn([C@@H](C)c3oc4ccc(F)cc4c(=O)c3-c3cccc(F)c3)c3ncnc(N)c23)cc1F [umbralisib, (S)-2-(1-(4-amino-3-(3-fluoro-4-isopropoxyphenyl)-1H-pyrazolo[3,4-d]pyrimidin-1-yl)ethyl)-6-fluoro-3-(3-fluorophenyl)-4H-chromen-4-one]",doses with signs of clinical activity,[16]; in vivo,≥ 800 mg each day
same,hepatic toxicity,[16]; [21],no reported hepatic toxicity
same,tolerability,[16]; [21],well-tolerated
same,patients with dose reduction of umbralisib due to G3-4 ALT elevation,"[14]; combination arm, dose escalation",3 patients
"Ublituximab: chimeric monoclonal antibody targeting a unique epitope on the CD20 antigen, glycoengineered for enhanced affinity for Fcγ RIIIa receptors (antibody, V domains shown, Ublituximab Variable heavy chain; Ublituximab Variable light chain) VH: QAYLQQSGAELVRPGASVKMSCKASGYTFTSYNMHWVKQTPRQGLEWIGGIYPGNGDTSYNQKFKGKATLTVGKSSSTAYMQLSSLTSEDSAVYFCARYDYNYAMDYWGQGTSVTVSS VL: QIVLSQSPAILSASPGEKVTMTCRASSSVSYMHWYQQKPGSSPKPWIYATSNLASGVPARFSGSGSGTSYSFTISRVEAEDAATYYCQQWTFNPPTFGGGTRLEIK",ADCC activity compared with rituximab and ofatumab,CD20 antigen,greater
